Measured values as given in US20170231922A1, “3, 5-DIHYDROXY-4-ISOPROPYLSTILBENE (DHIS) AS MITICIDAL AGENT AND ITS THERAPEUTIC USES” (Horizon GenoMed Therapeutics, Inc, priority 2016, published 2017).

What was measured:
D. bravis = experiment: In vitro miticidal assay, survival of isolated human demodex mites under microscopy; details: for Number mites dead: 30 mites per slide
Protocol: (§1) DHIS has potent miticidal activities. As described herein, an in vitro miticidal assay was performed to determine the miticidal activities of DHIS by using human demodex mites prepared with pressure scraping method, following by microscopic examination of the survival time of demodex under microscopy, using the method described in Chinese Journal of Parasitology and Parasitic Diseases 2011; 29:258-263.
(§2) In vitro miticidal assay was performed using human demodex mites prepared with pressure scraping method, following by microscopic examination of the survival time of demodex under microscopy, using the method described in Chinese Journal of Parasitology and Parasitic Diseases (Supra).
(§3) […] The slides were incubated at room temperature (20° C.) and under 70% humidity. The slides were examined under microscopy every 60 minutes for 8 hours after treatment. At each time point, the percentage of dead mites (no movements for 1 minute) was recorded for each treatment concentration.

D. folliculorum = experiment: as above; details: for Number mites dead / (%) mites dead: D. folliculorum; for Number mites dead: 30 mites per slide
Protocol: as §1, §2, §3

demodex mites [1] = experiment: Topical DHIS cream in volunteers with papulopustular rosacea (FIG. 1); assay type: in vivo, human; details: DHIS 0.75% cream twice daily
Protocol: (§4) A total of 20 volunteers (10 with papulopustular rosacea, 10 with papulopustular acne vulgaris) were recruited for this observation.
(§5) For each volunteer, the duration of the condition, the baseline sign and symptoms of their facial conditions and the severity of their condition were recorded. For the signs of the condition, papules and pustules were counted as total number for each individual. Erythema was rated as severe (3, deep red to purple), moderate (2, red), mild (1, pink), or none (0, normal color). For burning and pruritus, visual analogue scale (10 cm line) was used, with the score recorded from 0 (no symptoms) to 10 cm (most severe). In addition, the baseline demodex mite density of the perinasal skin was measured using the modified pressure-scraping technique. For the purpose of this study, both D. folliculorum and D. bravis were counted together. Then each volunteer used DHIS topical cream at 0.75% concentration, twice daily to the affected areas on the face. They were seen again at 4 weeks, when the clinical signs and symptoms were recorded. Further the demodex mite density was assessed again using the modified pressure/scraping technique.
(§6) Individuals with papulopustular rosacea (FIG. 1, N=10) and acne (FIG. 2, N=10) received DHIS 0.75% cream twice daily for 4 weeks. The demodex mite density (mite/cm^2) and clinical signs/symptoms are assessed at the baseline and again at 4 weeks. Papules and pustules are counted or the entire facial area for each individual. Erythema was graded as mild (1, pink), moderate (2, red), or severe (3, purple-red), whereas itchiness and burning sensation were graded according to a 10 cm visual analogue scale. * denotes p<0.05 (t-test)

demodex mites [2] = experiment: Topical DHIS cream in volunteers with papulopustular acne vulgaris (FIG. 2); assay type: in vivo, human; details: acne patients, DHIS 0.75% cream twice daily
Protocol: as §4, §5, §6

demodex mites [3] = experiment: Case study, rosacea patient; assay type: in vivo, human; details: Case 1, person with rosacea, DHIS 0.75% cream BID for 4 weeks
Source text: Case 1 involved a person with rosacea for 11 years. They had facial erythema and papules and pustules, with mild telangiectasia. There was burning sensation. This was associated with mild rhinophyma. There was foreign body sensation in the eyes. They had received tetracycline and sulfonamide based creams with no obvious improvement. At base line, there was more than usual number of demodex mites. They received DHIS 0.75% cream treatment BID for 4 weeks. […] See photos of the rosacea patient prior to treatment (FIG. 3A) and after 4 weeks of treatment (FIG. 3B).

demodex mites [4] = experiment: Case study, acne patient; assay type: in vivo, human; details: Case 2, person with acne, DHIS 0.75% cream BID, 4 weeks
Source text: Case 2 involved a person with more than 3 years of acnes symptoms. They had open comedons as well as closed comedons. There were papules and pustules but only mild erythema. They had received topical retinoic acid therapy with no improvement. In addition, they received benzoyl peroxide/antibiotic combination topical therapy, oral birth control pills, oral tetracycline, as well as oral Traditional Chinese Medicine concoction, all without satisfactory effects. They had increased demodex mite count at base line. […] Their facial acne papules and pustules resolved at the end of 4 weeks. See photos of the acne patient (cheeks and forehead) prior to treatment (FIGS. 4A and 5A) and after 4 weeks of treatment (FIGS. 4B and 5B).

**Q.** Which results are given for `CC(C)c1c(O)cc(/C=C/c2ccccc2)cc1O` [DHIS, 3,5-Dihydroxy-4-isopropyl-trans-stilbene]?
**A.** Number mites dead (D. bravis; DHIS 1 μM, 0 hr): 0; (%) mites dead (D. bravis; DHIS 1 μM, 1 hr): (6.7) %; Number mites dead (D. bravis; DHIS 1 μM, 1 hr): 2; (%) mites dead (D. bravis; DHIS 1 μM, 2 hr): (13) %; Number mites dead (D. bravis; DHIS 1 μM, 2 hr): 4; (%) mites dead (D. bravis; DHIS 1 μM, 3 hr): (23) %; Number mites dead (D. bravis; DHIS 1 μM, 3 hr): 7; (%) mites dead (D. bravis; DHIS 1 μM, 4 hr): (33) %; Number mites dead (D. bravis; DHIS 1 μM, 4 hr): 10; Number mites dead (D. bravis; DHIS 10 μM, 0 hr): 0; (%) mites dead (D. bravis; DHIS 10 μM, 1 hr): (20) %; Number mites dead (D. bravis; DHIS 10 μM, 1 hr): 6; (%) mites dead (D. bravis; DHIS 10 μM, 2 hr): (37) %; Number mites dead (D. bravis; DHIS 10 μM, 2 hr): 11; (%) mites dead (D. bravis; DHIS 10 μM, 3 hr): (47) %; Number mites dead (D. bravis; DHIS 10 μM, 3 hr): 14; (%) mites dead (D. bravis; DHIS 10 μM, 4 hr): (63) %; Number mites dead (D. bravis; DHIS 10 μM, 4 hr): 19; Number mites dead (D. bravis; DHIS 100 μM, 0 hr): 0; (%) mites dead (D. bravis; DHIS 100 μM, 1 hr): (40) %; Number mites dead (D. bravis; DHIS 100 μM, 1 hr): 12; (%) mites dead (D. bravis; DHIS 100 μM, 2 hr): (63) %; Number mites dead (D. bravis; DHIS 100 μM, 2 hr): 19; (%) mites dead (D. bravis; DHIS 100 μM, 3 hr): (80) %; Number mites dead (D. bravis; DHIS 100 μM, 3 hr): 24; (%) mites dead (D. bravis; DHIS 100 μM, 4 hr): (87) %; Number mites dead (D. bravis; DHIS 100 μM, 4 hr): 26; Number mites dead (D. bravis; DHIS 1.0 mM, 0 hr): 0; (%) mites dead (D. bravis; DHIS 1.0 mM, 1 hr): (47) %; Number mites dead (D. bravis; DHIS 1.0 mM, 1 hr): 14; (%) mites dead (D. bravis; DHIS 1.0 mM, 2 hr): (60) %; Number mites dead (D. bravis; DHIS 1.0 mM, 2 hr): 18; (%) mites dead (D. bravis; DHIS 1.0 mM, 3 hr): (87) %; Number mites dead (D. bravis; DHIS 1.0 mM, 3 hr): 26; (%) mites dead (D. bravis; DHIS 1.0 mM, 4 hr): (87) %; Number mites dead (D. bravis; DHIS 1.0 mM, 4 hr): 26; Number mites dead (D. folliculorum; DHIS 1 μM, 0 hr): 0; (%) mites dead (D. folliculorum; DHIS 1 μM, 1 hr): (10) %; Number mites dead (D. folliculorum; DHIS 1 μM, 1 hr): 3; (%) mites dead (D. folliculorum; DHIS 1 μM, 2 hr): (17) %; Number mites dead (D. folliculorum; DHIS 1 μM, 2 hr): 5; (%) mites dead (D. folliculorum; DHIS 1 μM, 3 hr): (28) %; Number mites dead (D. folliculorum; DHIS 1 μM, 3 hr): 8.6; (%) mites dead (D. folliculorum; DHIS 1 μM, 4 hr): (43) %; Number mites dead (D. folliculorum; DHIS 1 μM, 4 hr): 13; Number mites dead (D. folliculorum; DHIS 10 μM, 0 hr): 0; (%) mites dead (D. folliculorum; DHIS 10 μM, 1 hr): (23) %; Number mites dead (D. folliculorum; DHIS 10 μM, 1 hr): 7; (%) mites dead (D. folliculorum; DHIS 10 μM, 2 hr): (41) %; Number mites dead (D. folliculorum; DHIS 10 μM, 2 hr): 12.3; (%) mites dead (D. folliculorum; DHIS 10 μM, 3 hr): (47) %; Number mites dead (D. folliculorum; DHIS 10 μM, 3 hr): 14; (%) mites dead (D. folliculorum; DHIS 10 μM, 4 hr): (73) %; Number mites dead (D. folliculorum; DHIS 10 μM, 4 hr): 22; Number mites dead (D. folliculorum; DHIS 100 μM, 0 hr): 0; (%) mites dead (D. folliculorum; DHIS 100 μM, 1 hr): (33) %; Number mites dead (D. folliculorum; DHIS 100 μM, 1 hr): 10; (%) mites dead (D. folliculorum; DHIS 100 μM, 2 hr): (72) %; Number mites dead (D. folliculorum; DHIS 100 μM, 2 hr): 21.7; (%) mites dead (D. folliculorum; DHIS 100 μM, 3 hr): (87) %; Number mites dead (D. folliculorum; DHIS 100 μM, 3 hr): 26; (%) mites dead (D. folliculorum; DHIS 100 μM, 4 hr): (92) %; Number mites dead (D. folliculorum; DHIS 100 μM, 4 hr): 27.7; Number mites dead (D. folliculorum; DHIS 1.0 mM, 0 hr): 0; (%) mites dead (D. folliculorum; DHIS 1.0 mM, 1 hr): (43) %; Number mites dead (D. folliculorum; DHIS 1.0 mM, 1 hr): 13; (%) mites dead (D. folliculorum; DHIS 1.0 mM, 2 hr): (80) %; Number mites dead (D. folliculorum; DHIS 1.0 mM, 2 hr): 24; (%) mites dead (D. folliculorum; DHIS 1.0 mM, 3 hr): (93) %; Number mites dead (D. folliculorum; DHIS 1.0 mM, 3 hr): 28; (%) mites dead (D. folliculorum; DHIS 1.0 mM, 4 hr): (97) %; Number mites dead (D. folliculorum; DHIS 1.0 mM, 4 hr): 29; miticidal activity in vitro (D. folliculorum; human demodex mites, Example 1): dose-dependent miticidal activity; erythema (demodex mites [1]; 4 weeks): reduced erythema was also statistically significant; itchiness and burning sensation (demodex mites [1]; 4 weeks): reduced; lesional counts for papules and pustules (demodex mites [1]; 4 weeks): dramatic reduction; demodex mite density (demodex mites [1]; 4 weeks compared with baseline): significant reduction; erythema (demodex mites [2]; 4 weeks): reduced erythema was also statistically significant; itchiness and burning sensation (demodex mites [2]; 4 weeks): reduced; lesional counts for papules and pustules (demodex mites [2]; 4 weeks): dramatic reduction; demodex mite density (demodex mites [2]; 4 weeks compared with baseline): significant reduction; demodex mite density (demodex mites [3]): markedly decreased; rosacea signs and symptoms (demodex mites [3]): dramatically improved; facial acne papules and pustules (demodex mites [4]): resolved; facial demodex mite density (demodex mites [4]): significantly decreased
